Data as given in ChEMBL document CHEMBL3045408, “Receptor and ligand-based 3D-QSAR study on a series of nonsteroidal anti-inflammatory drugs” (Med Chem Res, 2013).

Experiments:
[1] = target: T1, Prostaglandin G/H synthase 2 (Homo sapiens, UniProt P35354); test: Inhibition of COX2 (unknown origin)
T1 sequence (P35354 whole entry): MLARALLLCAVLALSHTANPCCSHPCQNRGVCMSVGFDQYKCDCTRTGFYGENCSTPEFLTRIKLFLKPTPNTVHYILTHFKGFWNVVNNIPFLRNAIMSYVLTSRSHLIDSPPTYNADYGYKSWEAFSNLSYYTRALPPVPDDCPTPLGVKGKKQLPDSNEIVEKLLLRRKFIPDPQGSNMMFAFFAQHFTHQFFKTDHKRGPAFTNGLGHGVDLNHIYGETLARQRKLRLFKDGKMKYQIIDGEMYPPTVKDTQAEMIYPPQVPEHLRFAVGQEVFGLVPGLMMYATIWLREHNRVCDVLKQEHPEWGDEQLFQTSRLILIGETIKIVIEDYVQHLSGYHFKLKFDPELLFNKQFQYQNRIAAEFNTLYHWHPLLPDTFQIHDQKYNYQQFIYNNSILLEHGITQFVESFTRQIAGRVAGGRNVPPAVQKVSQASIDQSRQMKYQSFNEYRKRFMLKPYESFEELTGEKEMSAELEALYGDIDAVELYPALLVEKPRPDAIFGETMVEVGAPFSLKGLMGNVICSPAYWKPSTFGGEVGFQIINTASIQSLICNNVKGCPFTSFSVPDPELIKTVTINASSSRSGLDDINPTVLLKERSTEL

[2] = target: T2, Prostaglandin G/H synthase 2 (Homo sapiens) (UniProt P35354); test: Ratio of compound IC50 to celecoxib IC50 for Inhibition of COX2 (unknown origin)
T2 sequence (whole entry): T1 sequence (P35354 whole entry)

Row | IC50 [1] [nM] | -log(RatioIC50) [2] | SMILES
1 | 2000 |  | CS(=O)(=O)c1ccc(C=C(c2ccc(Cl)cc2)c2ccc(Cl)cc2)cc1
2 |  | 0.609 | CCCCC(=C(c1ccccc1)c1ccccc1)c1ccc(S(C)(=O)=O)cc1
3 | 320 | -0.66 | CCCC/C(=C(\c1ccccc1)c1ccc(NS(C)(=O)=O)cc1)c1ccccc1
4 | 360 | -0.711 | CCCCC(=C(c1ccccc1)c1cc(C(C)(C)C)c(O)c(C(C)(C)C)c1)c1ccc(S(C)(=O)=O)cc1
5 | 1250 | -1.34 | CCC(=C(c1ccccc1)c1ccccc1)c1ccc(S(C)(=O)=O)cc1
6 | > 100000 | -3.2 | CCCCC(=C(c1ccccc1)c1cc(C(C)(C)C)c(C(C)=O)c(C(C)(C)C)c1)c1ccc(S(C)(=O)=O)cc1
7 | 1800 | -1.41 | CC/C(=C(\c1ccccc1)c1ccc(NS(C)(=O)=O)cc1)c1ccccc1
8 | > 100000 | -3.2 | CS(=O)(=O)c1ccc(/C=C(/C(=O)O)c2cccc(-c3ccc(F)cc3F)c2)cc1
9 | > 100000 | -3.15 | CS(=O)(=O)Nc1ccc(/C(=C(\c2ccccc2)C2CCCCC2)c2ccccc2)cc1
10 | > 100000 | -3.2 | CC(C)Oc1ccc(-c2cccc(/C(=C\c3ccc(S(C)(=O)=O)cc3)C(=O)O)c2)cc1
